# Experimental data from the supplement of paper PMC10307832.
# Compound: CC[C@@H]1C(=O)N(C)c2cnc(Nc3ccc(C(=O)NC4CCN(C)CC4)cc3OC)nc2N1C1CCCC1 [BI-2536] + CC(=O)Nc1cccc(-n2c(=O)n(C3CC3)c(=O)c3c(Nc4ccc(I)cc4F)n(C)c(=O)c(C)c32)c1 [Trametinib] (partner 0.02 µM)
# Test: relative viability (nuclei count vs DMSO), 5 days (fraction); higher = more cells survive
# Conditions: first compound 0.01 µM
# Method in brief: (§1)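 Relative viability is defined as nuclei in treated wells over nuclei in vehicle wells. Duplicate plates were run and medians reported. Lung cancer cell lines in 1536-well plates were dosed by pin tool one day after seeding, with one drug or with a fixed anchor-drug dose plus five library-drug doses (not always all listed) in √10 steps, and nuclei were counted after 5 days.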
row,Cell Line,relative viability
1,NCI-H522,0.745
2,NCI-H727,0.366
3,NCI-H1650,0.674
4,NCI-H1993,0.448
5,SW 1573,0.515
6,NCI-H838,0.532
7,LCLC-103H,0.671
8,NCI-H520,0.712
9,NCI-H2126,0.622
10,EMC-BAC-2,0.854
11,NCI-H2085,0.523
12,HCC-366,0.364
13,NCI-H1666,0.919
14,NCI-H596,0.758
15,LK-2,0.787
16,NCI-H2087,0.18
17,SK-MES-1,0.523
18,H3255,0.571
19,COR-L23,0.579
20,COR-L 105,0.463
21,LOU-NH91,0.798
22,ChaGo-K-1,0.9
23,NCI-H2170,0.945
24,NCI-H2405,0.607
25,HOP-62,0.315
26,HCC-44,1.04
27,SW 900,0.929
28,LU99A,0.525
29,NCI-H1648,0.463
30,HCC-78,0.829

# Same assay, conditions: first compound 0.03162 µM
row,Cell Line,relative viability
1,NCI-H522,0.757
2,NCI-H727,0.364
3,NCI-H1650,0.497
4,NCI-H1993,0.404
5,SW 1573,0.51
6,NCI-H838,0.625
7,LCLC-103H,0.711
8,NCI-H520,0.503
9,NCI-H2126,0.597
10,EMC-BAC-2,0.851
11,NCI-H2085,0.52
12,HCC-366,0.371
13,NCI-H1666,0.914
14,NCI-H596,0.798
15,LK-2,0.752
16,NCI-H2087,0.183

row,Cell Line,relative viability
1,NCI-H2342,0.705
2,SK-MES-1,0.555
3,H3255,0.582
4,COR-L23,0.582
5,COR-L 105,0.454
6,LOU-NH91,0.736
7,ChaGo-K-1,0.875
8,NCI-H2170,0.916
9,NCI-H2405,0.549
10,HOP-62,0.353
11,HCC-44,1.04
12,SW 900,0.942
13,LU99A,0.647
14,NCI-H1648,0.409
15,HCC-78,0.837

# Same assay, conditions: first compound 0.1 µM
row,Cell Line,relative viability
1,NCI-H522,0.766
2,NCI-H727,0.379
3,NCI-H1650,0.456
4,NCI-H1993,0.56
5,SW 1573,0.117
6,NCI-H838,0.478
7,LCLC-103H,0.69
8,NCI-H520,0.352
9,NCI-H2126,0.517
10,EMC-BAC-2,0.819
11,NCI-H2085,0.439
12,HCC-366,0.235
13,NCI-H1666,0.865
14,NCI-H596,0.721
15,LK-2,0.746
16,NCI-H2087,0.147

row,Cell Line,relative viability
1,NCI-H2342,0.73
2,SK-MES-1,0.407
3,H3255,0.294
4,COR-L23,0.394
5,COR-L 105,0.394
6,LOU-NH91,0.682
7,ChaGo-K-1,0.733
8,NCI-H2170,0.775
9,NCI-H2405,0.441
10,HOP-62,0.401
11,HCC-44,1.03
12,SW 900,0.875
13,LU99A,0.562
14,NCI-H1648,0.434
15,HCC-78,0.814

# Same assay, conditions: first compound 0.3162 µM
row,Cell Line,relative viability
1,NCI-H522,0.302
2,NCI-H727,0.362
3,NCI-H1650,0.136
4,NCI-H1993,0.379
5,SW 1573,0.103
6,NCI-H838,0.081
7,LCLC-103H,0.336
8,NCI-H520,0.187
9,NCI-H2126,0.234
10,EMC-BAC-2,0.303
11,NCI-H2085,0.144
12,HCC-366,0.0287
13,NCI-H1666,0.49
14,NCI-H596,0.414
15,LK-2,0.173
16,NCI-H2087,0.0838

row,Cell Line,relative viability
1,NCI-H2342,0.604
2,SK-MES-1,0.196
3,H3255,0.281
4,COR-L23,0.0573
5,COR-L 105,0.267
6,LOU-NH91,0.332
7,ChaGo-K-1,0.181
8,NCI-H2170,0.137
9,NCI-H2405,0.277
10,HOP-62,0.167
11,HCC-44,0.323
12,SW 900,0.828
13,LU99A,0.196
14,NCI-H1648,0.28
15,HCC-78,0.562

# Same assay, conditions: first compound 1 µM
row,Cell Line,relative viability
1,NCI-H522,0.289
2,NCI-H727,0.332
3,NCI-H1650,0.136
4,NCI-H1993,0.398
5,SW 1573,0.0762
6,NCI-H838,0.0789
7,LCLC-103H,0.277
8,NCI-H520,0.164
9,NCI-H2126,0.228
10,EMC-BAC-2,0.277
11,NCI-H2085,0.177
12,HCC-366,0.0227
13,NCI-H1666,0.512
14,NCI-H596,0.256
15,LK-2,0.181
16,NCI-H2087,0.0815

row,Cell Line,relative viability
1,NCI-H2342,0.454
2,SK-MES-1,0.161
3,H3255,0.424
4,COR-L23,0.0949
5,COR-L 105,0.297
6,LOU-NH91,0.33
7,ChaGo-K-1,0.202
8,NCI-H2170,0.176
9,NCI-H2405,0.357
10,HOP-62,0.152
11,HCC-44,0.275
12,SW 900,0.147
13,LU99A,0.192
14,NCI-H1648,0.289
15,HCC-78,0.246

# Compound: CC1CC(=O)N(C2=CN=C(N=C2N1C3CCCC3)NC4=C(C=C(C=C4)C(=O)NC5CCN(CC5)C)OC)C [NPK76-II-72-1] + Cc1nc(NC(=O)N2CCC[C@H]2C(N)=O)sc1-c1ccnc(C(C)(C)C(F)(F)F)c1 [Alpelisib] (partner 2 µM)
# Test: as above
# Conditions: first compound 0.01 µM
# Method in brief: as §1
row,Cell Line,relative viability
1,NCI-H727,0.476
2,EBC-1,0.927
3,NCI-H1703,0.316
4,NCI-H1993,0.706
5,SW 1573,0.7
6,NCI-H838,0.974
7,LCLC-103H,0.929
8,NCI-H520,0.918
9,NCI-H2126,0.759
10,EMC-BAC-2,0.723
11,NCI-H2085,0.889
12,Calu-6,0.952
13,HCC-366,0.401
14,NCI-H1666,0.951
15,NCI-H596,0.523
16,LK-2,1

row,Cell Line,relative viability
1,NCI-H2087,1.1
2,SK-MES-1,0.835
3,H3255,0.683
4,COR-L23,0.638
5,COR-L 105,0.908
6,IA-LM,0.895
7,LOU-NH91,0.682
8,NCI-H2170,0.772
9,NCI-H2405,0.654
10,HOP-62,1.08
11,HCC-44,0.771
12,A549,0.84
13,LU99A,0.462
14,NCI-H1299,1.09
15,NCI-H1563,0.859
16,ABC-1,0.839

# Same assay, conditions: first compound 0.03162 µM
row,Cell Line,relative viability
1,NCI-H727,0.516
2,EBC-1,0.931
3,NCI-H1703,0.343
4,NCI-H1993,0.65
5,SW 1573,0.891
6,NCI-H838,0.942
7,LCLC-103H,0.928
8,NCI-H520,1.03
9,NCI-H2126,0.81
10,EMC-BAC-2,0.764
11,NCI-H2085,0.946
12,Calu-6,1.03
13,HCC-366,0.443
14,NCI-H1666,0.957
15,NCI-H596,0.448
16,LK-2,1.23
17,NCI-H2087,1.1

row,Cell Line,relative viability
1,SK-MES-1,0.847
2,H3255,0.663
3,COR-L23,0.821
4,COR-L 105,0.907
5,IA-LM,0.851
6,LOU-NH91,0.72
7,NCI-H2170,0.839
8,NCI-H2405,0.853
9,HOP-62,0.999
10,HCC-44,0.854
11,A549,0.824
12,LU99A,0.578
13,HCC-78,0.402
14,NCI-H1299,1.07
15,NCI-H1563,0.939
16,ABC-1,0.982

# Same assay, conditions: first compound 0.1 µM
row,Cell Line,relative viability
1,NCI-H727,0.626
2,EBC-1,0.828
3,NCI-H1703,0.35
4,NCI-H1993,0.62
5,SW 1573,0.7
6,NCI-H838,0.972
7,LCLC-103H,1.07
8,NCI-H520,0.909
9,NCI-H2126,0.752
10,EMC-BAC-2,0.786
11,NCI-H2085,0.932
12,Calu-6,1.05
13,HCC-366,0.456
14,NCI-H1666,1.02
15,NCI-H596,0.405
16,LK-2,1.12
17,NCI-H2087,1.07

row,Cell Line,relative viability
1,SK-MES-1,0.868
2,H3255,0.721
3,COR-L23,0.815
4,COR-L 105,1.13
5,IA-LM,0.657
6,LOU-NH91,0.719
7,NCI-H2170,0.777
8,NCI-H2405,0.753
9,HOP-62,0.871
10,HCC-44,0.76
11,A549,0.889
12,LU99A,0.576
13,HCC-78,0.334
14,NCI-H1299,1.03
15,NCI-H1563,0.948
16,ABC-1,1.11

# Same assay, conditions: first compound 0.3162 µM
row,Cell Line,relative viability
1,NCI-H727,0.543
2,EBC-1,0.836
3,NCI-H1703,0.314
4,NCI-H1993,0.655
5,SW 1573,0.764
6,NCI-H838,0.948
7,LCLC-103H,0.925
8,NCI-H520,0.859
9,NCI-H2126,0.71
10,EMC-BAC-2,0.668
11,NCI-H2085,0.899
12,Calu-6,0.972
13,HCC-366,0.435
14,NCI-H1666,0.911
15,NCI-H596,0.479
16,NCI-H2087,1.01
17,SK-MES-1,0.907
18,COR-L23,0.815
19,COR-L 105,0.905
20,IA-LM,0.612
21,LOU-NH91,0.563
22,NCI-H2405,0.744
23,HOP-62,1.1
24,HCC-44,0.789
25,A549,0.716
26,LU99A,0.48
27,NCI-H1299,1.05
28,NCI-H1563,0.833
29,ABC-1,0.953

# Same assay, conditions: first compound 1 µM
row,Cell Line,relative viability
1,NCI-H727,0.713
2,EBC-1,0.906
3,NCI-H1703,0.4
4,NCI-H1993,0.664
5,SW 1573,0.819
6,NCI-H838,1.02
7,LCLC-103H,0.993
8,NCI-H520,0.829
9,NCI-H2126,0.734
10,EMC-BAC-2,0.774
11,NCI-H2085,1
12,Calu-6,1.14
13,HCC-366,0.452
14,NCI-H1666,1.01
15,NCI-H596,0.498
16,LK-2,0.652
17,NCI-H2087,1.48

row,Cell Line,relative viability
1,SK-MES-1,0.883
2,H3255,0.934
3,COR-L23,0.822
4,COR-L 105,1.13
5,IA-LM,0.705
6,LOU-NH91,0.814
7,NCI-H2170,0.789
8,NCI-H2405,0.921
9,HOP-62,1.12
10,HCC-44,0.809
11,A549,0.769
12,LU99A,0.563
13,HCC-78,0.337
14,NCI-H1299,1.06
15,NCI-H1563,0.955
16,ABC-1,1
